Where “and” joins values, the source holds several entries; their conditions need not be identical. Equal values may be shown once. Entries after “also recorded” stand apart in the source; their conditions may differ. Read-outs that look alike come from different tables or passages of the source.
What was measured:
primary cortical neurons [1] = assay: Neuroprotection against H2O2-induced oxidative stress (MTS assay), comparison with known neuroprotectants; format: cell-based, rat; settings: 24 h pre-treatment, harsh H2O2 treatment (150 μM)
Description: Twice, half the amount of medium was replaced with fresh neurobasal medium containing no antioxidants. […] The other known neuroprotectants were dissolved in appropriate solvents and diluted to the final concentrations as indicated. […] Each assay was performed in triplicate. After 24 hours, the cultures were evaluated for viability and mitochondrial function using a standard MTS Assay (Promega). The manufacturer's protocols were followed. Experiments were carried out in accordance with the above study design. […] Ginkgo biloba was dissolved in dH2O at a concentration of 6 mg/ml, and further diluted in the neurobasal medium to final concentrations of 2.5 μ/ml, 5 μg/ml, 25 μg/ml, and 250 μg/ml. […] The plates were returned to the incubator at 37° C. with 5% CO2 for one hour. Subsequently, 20 μl MTS reagent was added to each well and the plates were incubated at 37° C. with 5% CO2 for an additional two hours. The absorbance at 490 nm for each well was recorded with the BioRad plate reader (Model 550). Wells containing medium alone were used as blanks. Each data point is the average of three separate assay wells. […] Two-week-old primary cultures were used for this set of study.

primary cortical neurons [2] = assay: ROS generation in neuronal cells (c-DCF fluorescence); format: cell-based, rat; settings: 10 μM
Description: Twice, half the amount of medium was replaced with fresh neurobasal medium without antioxidants. […] Untreated cells loaded with the dye were used as controls to calculate the c-DCF fluorescence change. Each assay was performed in triplicate. The c-DCF fluorescence at 485/520 nm (Ex/Em) for each well was recorded with the BMG Polar Star plate reader. Wells containing cells without dye were used as blanks. Each data point is the average of three separate assay wells. Untreated cells loaded with the dye were used as a control to calculate the c-DCF fluorescence change. Two-week-old primary cultures were used for the study. CM-H2DCFDA is a cell-permeant indicator for reactive oxygen species (ROS), which is non-fluorescent until the acetate groups are removed by intracellular esterases and oxidation occurs within the cell. It has been widely employed to detect the generation of ROS in cells and animals. Here, it has been used as a tool to assess the effects of PAN-811 on ROS generation in neuronal cells following the procedures described in this example. […] Experiments were repeated four times in different batches of cells and similar results were obtained. See FIG. 2 for the representative experiment.

primary cortical neurons [3] = assay: Protection of neurons from H2O2-induced oxidative stress (60-70 μM H2O2, MTS assay); format: cell-based, rat; settings: 1-10 μM, 24 h pre-treatment, H2O2 60-70 μM
Description: Twice, half amount of medium was replaced with fresh neurobasal medium containing no antioxidants. […] Each assay was performed in triplicate. […] After 24 hours, the cultures were evaluated for viability and mitochondrial function using a standard MTS Assay (Promega). The manufacturer's protocols were followed. […] The plates were put back into the incubator at 37° C. with 5% CO2 for one hour, then 20 μl MTS reagent was added to each well and plates were incubated at 37° C. with 5% CO2 for an additional two hours. The absorbance at 490 nm for each well was recorded with the BioRad plate reader (Model 550). Wells containing media alone were used as blanks. Each data point is the average of three separate assay wells. […] Three-week-old primary cultures were used for this set of study. Experiments were carried out following the same procedures as experiment 1. Two-week-old primary cultures were used for this study.

cortical neurons [4] = settings: for protection from neuronal cell death (morphology): 5 μM, hypoxia
Description: Experiments were performed in a 96-well plate format. Cortical neurons were seeded at a density of 50,000 cells/well on a poly-D-lysine coated surface, and cultured in serum-free medium (NB plus B27 supplement) to obtain cultures highly enriched for neurons. Neurons were cultured for over 14 d.i.v. to increase cell susceptibility to excitatory amino acids (Jiang et al., 2001). Six replicate wells were treated as a group to facilitate assay quantitation.
Treatment with drug was continued during and subsequent to a 24-hour period of hypoxia. Cellular morphology and function (MTS and LDH assays) were measured 24 or 48 hours subsequent to the hypoxic insult.
The MTS assay is a colorimetric assay that measures the mitochondrial function in metabolically active cells. This measurement indirectly reflects cell viability. […] 20 μl of MTS reagent (Promega) are added to each well of the 96 well assay plates containing the samples in 100 μl of culture medium. The plate is then incubated in a humidified, 5% CO2 atmosphere at 37° C. for 1-2 hours until the color is fully developed. The absorbance at 490 nm was recorded using a Bio-Rad 96 well plate reader.
The lactate dehydrogenase (LDH) assay is based on the reduction of NAD by the action of LDH. The resulting reduced NAD (NADH) is utilized in the stoichiometric conversion of a tetrazolium dye. If cell-free aliquots of medium from cultures given different treatments are assayed, then the amount of LDH activity can be used as an indicator of relative cell death as well as a function of membrane integrity. A 50 μl aliquot of culture medium from a well in tested 96-well plate is transferred into a well in unused plate and supplemented with 25 μl of equally-mixed Substrate, Enzyme and Dye Solutions (Sigma). The preparation is incubated at room temperature for 20-30 minutes, and then measured spectrophotometrically at wavelength of 490 nm.

[5] = tested on: male Sprague-Dawley rats, middle cerebral artery occlusion
[6] = Solubility of PAN-811 in solvents; settings: PEG-300/EtOH vs EtOH
[7] = tested on: enriched neuronal cultures (cerebellar tissue); assay: Neurotoxicity of PAN-811, 24 h treatment (MTT assay); settings: highest concentration tested (100 μM)
Description: Enriched neuronal cultures were prepared from 15-day-old Sprague-Dawley rat embryos. Using aseptic techniques, the rat embryos were removed from the uterus and placed in sterile neuronal culture medium. Using a dissecting microscope, the brain tissue was removed from each embryo, with care taken to discard the meninges and blood vessels. The cerebellum was separated by gross dissection under the microscope, and only cerebellar tissue was used for the culture. Cells were dissociated by trituration of the tissue and were plated at a density of 5×10^5 cells/well onto 48-well culture plates precoated with poly(L-lysine). […]
Cells were treated with varying amounts of PAN-811 (0-100 μM) for 24 hrs. Cell viability was determined in the MTT assay.
Cell damage was quantitatively assessed using a tetrazolium salt colorimetric assay with 3-(4,5-dimethylthiazol-2-yl)-2,5-diphenyltetrazolium (MTT; Sigma Chemical Co., St. Louis, Mo.). Briefly, the dye was added to each well (final concentration, 1.5 mg/ml), cells were incubated with MTT-acidified isopropanol (0.1 N HCl in isopropanol), and the absorbance intensity (540 nm) of each sample was measured in a 96-well plate reader. Values are expressed relative to vehicle-treated control cells that were maintained on each plate, and the percentage change in cell viability was calculated.

cortical neurons [8] = assay: Extreme hypoxia/hypoglycemia (H/H) model, 0.4 mM glucose
Description: (§1) Experiments were performed in a 96-well plate format. Cortical neurons were seeded at a density of 50,000 cells/well on a poly-D-lysine coated surface, and cultured in serum-free medium (NB plus B27 supplement) to obtain cultures highly enriched for neurons. […] Six replicate wells were treated as a group to facilitate assay quantitation.
(§2) The extreme H/H model (0.4 mM glucose) is a mimic of the environment in the central core of an infarct; the mild H/H model (1.63 mM glucose) is a mimic of the environment in the penumbra during MCAO; and the hypoxia only model (neurons in normal in vitro glucose concentration—25 mM) is a mimic of the environment in the penumbra after reperfusion since the possible cell death after reperfusion is predominantly a result of the hypoxic effect rather then energy failure.
Hypoxia/hypoglycemia was obtained by reducing glucose concentration down to 0.4 mM and 1.63 mM for extreme H/H and mild H/H, respectively. […] The level of O2 in the chamber was determined to be zero with an O2 indicator (FYRITE Gas Analyzer, Bacharach, Inc.). […] Mitochondrial function and cell death were evaluated at 24 or 48 hours post H/H insult with the MTS and LDH analyses (see below).
The MTS assay is a colorimetric assay that measures the mitochondrial function in metabolically active cells. […] The absorbance at 490 nm was recorded using a Bio-Rad 96 well plate reader. […]

cortical neurons [9] = settings: for protection (Comments): 24 h pre-treatment, 6 h H/H, 24 h post, culture age 15 days, test range started from 5 μM
Description: as §1, §2
Hypoxia/hypoglycemia was obtained by reducing glucose concentration down to 0.4 mM and 1.63 mM for extreme H/H and mild H/H, respectively. BSS (116.0 mM NaCl, 5.4 mM KCl, 0.8 mM MgSO4.e7H20, 1.0 mM NaH2PO4, 1.8 mM CaCl2.2H2O, 26.2 mM NaHCO3, and 0.01 mM glycine) or BSS with 25 mM glucose were de-gassed for 5 minutes prior to use. Culture medium in the plates for hypoxia was replaced with BSS or BSS with glucose. Meanwhile, culture medium in the plates for normoxia was replaced with non de-gassed BSS or BSS with glucose. Cells were committed to hypoxic conditions by transferring the plates into a sealed container (Modular Incubator Chamber-101™, Billups-Rothenberg, Inc.), applying a vacuum for 20 minutes to remove oxygen or other gases from the culture medium, and then refilling the chamber with 5% CO2 and 95% N2 at a pressure of 30 psi for 1 minute. The level of O2 in the chamber was determined to be zero with an O2 indicator (FYRITE Gas Analyzer, Bacharach, Inc.). Culture plates were maintained in the chamber for 6 hours. As an experimental control, duplicate culture plates were maintained under normal culture condition (5% CO2 and 95% ambient air) for the same duration. After a 6-hour treatment, plates were removed from the chamber and the medium in both the hypoxic and normoxic cultures was replaced with a termination solution (DMEM supplemented with 1×sodium pyruvate, 10.0 mM HEPES, and 1×N2 supplement) containing 25 mM glucose and cultured in 5% CO2 and 95% ambient air conditions. […] MK801 was utilized as a positive control. Mitochondrial function and cell death were evaluated at 24 or 48 hours post H/H insult with the MTS and LDH analyses (see below).
The MTS assay is a colorimetric assay that measures the mitochondrial function in metabolically active cells. This measurement indirectly reflects cell viability. […] The absorbance at 490 nm was recorded using a Bio-Rad 96 well plate reader. […]

[10] = tested on: co-cultured cortical and striatal neurons; assay: Protection from Aβ1-42 or Aβ25-35 induced neurotoxicity (morphology, LDH, MTS)
Description: Experiments were performed in a 96-well plate format. Cortical neurons were seeded at a density of 50,000 cells/well on poly-D-lysine coated surface, and cultured in serum-free medium (NB plus B27 supplement containing AO or without AO) to obtain cultures high enriched for neurons. Neurons were cultured for over 14 d.i.v. to increase cell susceptibility to excitatory amino acids (Jiang et al., 2001, supra). Three to six replicate wells were treated as a group to facilitate assay quantitation.
Lyophilized Aβs were dissolved in de-ionized and distilled water to a final concentration of 400 μM, and aliquoted and stored at −20° C. Before use, an aliquot of Aβ was removed from freezer and incubated at 37° C. for 48 hours. Neurons were cultured in NB with B27 supplement containing AO or without AO under 5% CO2 and 95% ambient air, 37° C. At 2 or 3 weeks, the neurons were treated with pre-incubated Aβ and either non-incubated Aβ or Aβ35-25 served as experimental controls.
Treatment with 2μM PAN-811 or 1:12,500 PEG:EtOH (7:3 as vehicle control) was started by at most 3 hours following Aβ insult. The neurons remained in culture post-treatment for different time periods, from 1 to 16 days.
Neuronal cell death was morphologically evaluated.
The MTS assay is a colorimetric assay that measures the mitochondrial function in metabolically active cells. This measurement indirectly reflects cell viability. […] 10 μl of MTS reagent (Promega) are added to each well of the 96 well assay plates containing the samples in 50 μl of culture medium. The plate is then incubated in a humidified, 5% CO2 atmosphere at 37° C. for 1 hour until the color is fully developed. The absorbance at 490 nm was recorded using a Bio-Rad 96 well plate reader.
Lactate dehydrogenase (LDH) assay is based on the reduction of NAD by the action of LDH. The resulting reduced NAD (NADH) is utilized in the stoichiometric conversion of a tetrazolium dye. If cell-free aliquots of medium from cultures given different treatments are assayed, then the amount of LDH activity can be used as an indicator of relative cell death as well as a function of membrane integrity. A 35μl aliquot of culture medium from a well in a 96-well test plate is transferred into a well in unused plate and supplemented with 17.5 μl of equally mixed Substrate, Enzyme and Dye Solutions (Sigma). The preparation is incubated at room temperature for 30 minutes, and then measured spectrophotometrically at a wavelength of 490 nm.
Primary neurons were isolated from cortex and striatum of 17-day-old rat embryonic brain and seeded on 96-well plates at 50,000 cells/well in regular neurobasal medium (Neurobasal Medium supplemented with B27-AO) for 2-3 weeks.
Lyophilized Aβ1-42 and Aβ25-35 were dissolved in distilled, deionized water to a final concentration of 400 uM. Aliquots of the preparations were stored at −20° C. The day before the experiment, the peptides were shifted from −20° C. to 37° C. and incubated overnight at 37° C.
The neurons at 12-16 d.i.v. and 21-23 d.i.v. were insulted by adding 2.5 ul per well of either 400 uM Aβ1-42 or 400 uM Aβ25-35 (final concentration: 10 uM). Untreated and Aβ35-25-treated wells were taken as negative controls and 25 uM glutamate treated wells were set as the positive control. At the same time as or 2-3 hours after the initiation of Aβ insults, 1:5000 diluted PEG:EtOH (vehicle for PAN-811) as well as PAN-811 at concentrations of 0.25, 05., 1 and 2 μM were added to the Aβ insulted wells. The neurons were continuously incubated at 37° C., 5% CO2. Data were obtained from the readings of 3-6 replicate wells.

[11] = tested on: enriched neuronal cultures (cerebellar tissue); assay: In vitro models of excitotoxicity (H/H, glutamate, staurosporine, veratridine), MTT assay
Description: Enriched neuronal cultures were prepared from 15-day-old Sprague-Dawley rat embryos. Using aseptic techniques, the rat embryos were removed from the uterus and placed in sterile neuronal culture medium. Using a dissecting microscope, the brain tissue was removed from each embryo, with care taken to discard the meninges and blood vessels. The cerebellum was separated by gross dissection under the microscope, and only cerebellar tissue was used for the culture. Cells were dissociated by trituration of the tissue and were plated at a density of 5×10^5 cells/well onto 48-well culture plates precoated with poly(L-lysine). Cultures were maintained in a medium containing equal parts of Eagle's basal medium (without glutamine) and Ham's F-12k medium supplemented with 10% heat-inactivated horse serum, 10% fetal bovine serum, 600 μg/ml glucose, 100 μg/ml glutamine, 50 U/ml penicillin, and 50 μg/ml streptomycin. After 48 h, 10 μM cytosine arabinoside was added to inhibit non-neuronal cell division. Cells were used in experiments after 7 days in culture.
Four in vitro models of excitotoxicity were studied. Cells were either exposed to H/H conditions for 3 hrs or treated for 45 min with one of glutamate (100 μM), staurosporine (1 μM) or veratridine (10 μM). All cells were co-treated with or without PAN-811 (10 μM) in Locke's solution. At the conclusion of the respective excitotoxic exposures, the condition medium (original) was replaced. H/H was induced by incubating the cells in a humidified airtight chamber saturated with 95% nitrogen, 5% CO2 gas for 3 hrs in Locke's solution without added glucose.
Twenty-four hours after the excitotoxic insult, cell viability assessments were made. Cell damage was quantitatively assessed using a tetrazolium salt colorimetric assay with 3-(4,5-dimethylthiazol-2-yl)-2,5-diphenyltetrazolium (MTT; Sigma Chemical Co., St. Louis, Mo.). Briefly, the dye was added to each well (final concentration, 1.5 mg/ml), cells were incubated with MTT-acidified isopropanol (0.1 N HCl in isopropanol), and the absorbance intensity (540 nm) of each sample was measured in a 96-well plate reader. Values are expressed relative to vehicle-treated control cells that were maintained on each plate, and the percentage change in cell viability was calculated.

[12] = tested on: primary neurons from cortex and striatum; assay: Neurotoxicity of Aβ peptides (morphology, LDH, MTS); format: cell-based, rat; settings: for increase in LDH of the culture medium: 10 uM peptide, 16 day post-insult, neurons 12-16 d.i.v., 0% AO
[13] = 2 μM, 100% +AO, 1 day post-insult
[14] = 10 uM, 1-6 days post-insult, older neurons (21-23 d.i.v.), 90% AO

With Vitamin E [reference compound] the neuroprotective capacity (primary cortical neurons [1]; known neuroprotectants) was “minimal neuroprotective capacity”.

For `NC(=S)N/N=C/c1ncccc1N` [PAN-811, 3-aminopyridine-2-carboxaldehyde thiosemicarbazone], the neuroprotective capacity (primary cortical neurons [1]; PAN-811 1-10 μM) was “good neuroprotective capacity; also recorded: significant neuroprotection”, the “reduction of basal level of ROS generation” value (primary cortical neurons [2]) was ~50% and the “reduction of H2O2-induced ROS generation” value (primary cortical neurons [2]; 1 h, then 300 μM H2O2 for 2 h) was ~30%. The neuroprotective capacity (primary cortical neurons [3]) was “good neuroprotective capacity”, the “protection from neuronal cell death (morphology)” value (cortical neurons [4]) was “efficient protection from neuronal cell death” and the “neuronal cell death after hypoxia” value (cortical neurons [4]; 21 μM, 48 h prior, during 24-h hypoxia and 48 h after) was “completely blocked the cell death”. The “Infarct volume, range” value ([5]; 1 mg/kg IV 10 minutes prior to MCAO) was 42.36-387.08 mm^3, the “Infarct Volume (individual rat)” value ([5]; 1 mg/kg IV 10 minutes prior to MCAO, 24 hours after surgery) was 42.36 mm^3 and 126.42 mm^3 and 143.74 mm^3 and 158.83 mm^3 and 196.18 mm^3 and 200.08 mm^3 and 218.54 mm^3 and 221.46 mm^3 and 224.32 mm^3 and 255.36 mm^3 and 267.40 mm^3 and 344.47 mm^3 and 375.59 mm^3 and 387.08 mm^3 and the “Infarct Volume, mean” value ([5]; 1 mg/kg IV 10 minutes prior to MCAO, 24 hours after surgery, n 14) was 225.85 mm^3. The rats that died ([5]; of the 7 rats that died (4 severe strokes, 3 with SAH), 6 were vehicle rats) was 1, the tolerability ([5]; rat, in vivo) was “well tolerated and relatively non-toxic” and the solubility [6] was “better solubility in PEG-300/EtOH comparing to EtOH alone”. The maximal toxicity [7] was 7.8%, the “extreme H/H-induced neuronal cell death” value (cortical neurons [8]; 100 μM) was “only partially blocked” and the “protection from neuronal cell death” value (cortical neurons [8]; ≦50 μM, extreme H/H) was “did not protect neuronal cell death”. The “protection from mild H/H induced neurotoxicity” value (cortical neurons [9]; 2 μM) was “completely protected”, the “protection from H/H-induced mitochondria dysfunction and neuronal cell death” value (cortical neurons [9]; 5 μM, 24 h before and during 6-h H/H, MTS and LDH 17 h post insult) was “completely protected” and the “protection (Comments)” value (cortical neurons [9]; 5 μM) was 5 μM: 100% protected. The “protection (Comments)” value (cortical neurons [9]; 10 μM) was 10 μM: 100% protected, the “protection from Aβ25-35 induced neuronal cell death, 3-week old neurons” value ([10]; 2 μM post-treatment (2 or 3h later), 10 μM Aβ25-35, 90% AO) was “well protected; also recorded: fully block” and the “MTS reading, 7-week-old mixed neurons” value [10, 13] was “slight reduction in the MTS reading”. The “morphology of neurons, 7-week-old mixed neurons” value [10, 13] was “well preserved the morphology of neurons”, the “protection from neuronal cell death (morphology monitoring)” value ([10]; 2μM, Aβ insult) was “efficient protection from neuronal cell death” and the “neuronal and neurite morphologies, younger neurons” value ([10]; 2 μM, at the same time as or 3 hours after Aβ1-42 or Aβ25-35 insult, 12-16 days, 0% AO) was “well preserved neuronal and neurite morphologies”. The “Aβ1-42 or Aβ25-35 induced neurotoxicity, younger neurons” value ([10]; 2 μM, neurons 12-16 d.i.v. (2-week old), 0% AO, 10 uM Aβ) was “fully block; also recorded: well protected”, the “LDH reading, younger neurons” value ([10]; 2 μM, same time or 2-3 hours post Aβ1-42 or Aβ25-35, day 16, 0% AO) was “down to a level lower than untreated (control) group” and the “neuronal and neurite morphologies, older neurons” value ([10]; 0.25-2 uM, same time as or 2-3 hour after Aβ insult, 90% AO, 1-6 days) was “well preserved neuronal and neurite morphologies”. For the same compound, the “MTS reading, older neurons” value ([10]; 0.25 to 1 μM, 3 hours after initiation of Aβ25-35 insult, 90% AO) was “up to control level”, the “Aβ1-42 and Aβ25-35 induced neurotoxicity, older neurons” value ([10]; 0.25 to 2 μM, neurons 21-23 d.i.v., 90% AO) was “fully blocked” and the “lowest dose giving full protection” value ([10]; administered 3 hours after initiation of Aβ25-35 insult) was 0.25 µM. The “protection from damage by 3-hour hypoxia/hypoglycemia” value ([11]; 10 μM PAN-811) was 92%, the “protection from 1 μM staurosporine” value ([11]; 10 μM PAN-811, 45 min insult) was ~47% and the “protection from 10 μM veratridine” value ([11]; 10 μM PAN-811, 45 min insult) was ~39%. The “protection from 100 μM glutamate” value ([11]; 10 μM PAN-811, 45 min insult) was ~75%.

In the case of `O=C(O)CCCC[C@@H]1CCSS1` (racemic) [lipoic acid, reference compound], the neuroprotective capacity (primary cortical neurons [1]; known neuroprotectants) is reported as “minimal neuroprotective capacity”.

In the case of “Aβ25-35: amyloid beta peptide fragment from Oncogene or Bachem, used as neurotoxic insult (GSNKGAIIGLM; Amyloid-beta protein 42; UniProt P05067 696-706, looked up, fragment)”, the “increase in LDH of the culture medium” value [12] is reported as ~40%, the “decrease in MTS reading” value [12, 14] is reported as 7.5% and the “increase in medium LDH reading” value [12, 14] is reported as 12-18%. The “concentration able to induce neurotoxicity” value ([12]; 100% AO) was 80 µM.

For `C[C@]12N[C@H](Cc3ccccc31)c1ccccc12` [MK801, reference compound], the “protection from neuronal cell death (morphology)” value (cortical neurons [4]) was “efficient protection from neuronal cell death”.

For “Aβ1-42: amyloid beta peptide (Aβ1-42) from Sigma, used as neurotoxic insult”, the “increase in LDH of the culture medium” value [12] was ~40%.

Reference: US20070179147A1, “Methods of treating and preventing Alzheimer's disease” (priority 2006, published 2007)
